Data published in US4345938A, “Herbicidal 2-haloacetanilides” (Monsanto Company, priority 1980, dated 1982).
Read-outs that look alike come from different tables or passages of the source.

Tests used:
[1] = test system: Rice; test: Greenhouse transplant rice test, rice injury; format: in vivo, Rice (Bluebelle); details: Oryza sativa, about 3 WAT, read-out: Percent Inhibition, Rice
Text: The test procedure used in this greenhouse test is as follows: Ray silt loam top soil containing about 0.05% by weight of krillium and sifted through a […] screen is fumigated about 5-10 days prior to use. Pots are then filled with said Ray silt loam soil to a level to allow for a 1 in. (2.54 cm) flooding depth. Rice plants (Bluebelle) of 2 to 3 weeks age are transplanted to the pots and bulbs or seeds of the test weeds also planted in the pots. The pots are then flooded and the test chemical applied to the surface of the flood water. The flood water is reduced to allow for germination of the Echinochloa crus-galli (barnyardgrass) seed and subsequently reflooded and maintained in that condition. Observations of percent inhibition using a scale of 0-100% are made about 3 weeks after transplant (WAT).
The test data in Table III for all compounds was obtained under identical test conditions. The weeds used in the tests herein have the following abbreviations in the tables: Echinochloa crus-galli (EC), Monochloria vaginalis (MV), Cyperus Serotinus (CS), Eleocharis Kuroguwai (EK) and Sagittaria trifolia (ST).

[2] = test system: Monochoria vaginalis; test: Field transplant rice test, applied 9 DAT, MV; format: in vivo; details: for inhibition at 375 g/ha / inhibition at 750 g/ha / inhibition at 1500 g/ha / inhibition at 3000 g/ha: Pontederia vaginalis, 216 h, read-out: Percent Inhibition, MV; for inhibition at 375 g/ha: 0.375 Kg/Ha; for inhibition at 750 g/ha: 0.75 Kg/Ha; for inhibition at 1500 g/ha: 1.5 Kg/Ha; for inhibition at 3000 g/ha: 3.0 Kg/Ha
Summary of the method: (§1)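 Field test in transplanted rice, herbicides applied as granules (2.5% or 5.0% w/w active) 9 days after transplant at 3.0 down to 0.375 kg/ha. Weed control observed weekly from 3 to 7 weeks after transplant.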

[3] = test system: Cyperus serotinus; test: Field transplant rice test, applied 0 DAT, CS; format: in vivo; details: 0 h, read-out: Percent Inhibition, CS; for inhibition at 375 g/ha: 0.375 Kg/Ha; for inhibition at 750 g/ha: 0.75 Kg/Ha; for inhibition at 1500 g/ha: 1.5 Kg/Ha; for inhibition at 3000 g/ha: 3.0 Kg/Ha
Summary of the method: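 Field test in transplanted rice, herbicide applied as granules (2.5% or 5.0% w/w active) at transplanting (0 DAT). Rates from 3.0 kg/ha down to 0.375 kg/ha. Weed control observed weekly from 2 to 6 weeks after transplant, reported at 2, 4 and 6 WAT.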

[4] = test system: Cyperus serotinus; test: Field transplant rice test, applied 9 DAT, CS; format: in vivo; details: for inhibition at 375 g/ha / inhibition at 750 g/ha / inhibition at 1500 g/ha / inhibition at 3000 g/ha: Cyperus serotinus, 216 h, read-out: Percent Inhibition, CS; for inhibition at 375 g/ha: 0.375 Kg/Ha; for inhibition at 750 g/ha: 0.75 Kg/Ha; for inhibition at 1500 g/ha: 1.5 Kg/Ha; for inhibition at 3000 g/ha: 3.0 Kg/Ha
Summary of the method: as §1

[5] = test system: Rice; test: Field transplant rice test, applied 0 DAT, rice injury; format: in vivo; details: for inhibition at 375 g/ha / inhibition at 750 g/ha / inhibition at 1500 g/ha / inhibition at 3000 g/ha: Oryza sativa, 0 h, read-out: Percent Inhibition, Rice; for inhibition at 375 g/ha: 0.375 Kg/Ha; for inhibition at 750 g/ha: 0.75 Kg/Ha; for inhibition at 1500 g/ha: 1.5 Kg/Ha; for inhibition at 3000 g/ha: 3.0 Kg/Ha
Summary of the method: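 Field test in transplant rice with herbicide applied as granules at transplanting (0 DAT), at rates from 3.0 kg/ha down to 0.375 kg/ha. Injury was rated weekly from 2 to 6 weeks after transplant. Granules held 2.5% or 5.0% herbicide by weight, depending on compound.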

[6] = test system: Echinochloa crus-galli; test: Field transplant rice test, applied 9 DAT, EC; format: in vivo; details: Echinochloa crus-galli, 216 h, read-out: Percent Inhibition, EC; for inhibition at 375 g/ha: 0.375 Kg/Ha; for inhibition at 750 g/ha: 0.75 Kg/Ha; for inhibition at 1500 g/ha: 1.5 Kg/Ha; for inhibition at 3000 g/ha: 3.0 Kg/Ha
Summary of the method: as §1

Question: How did the inhibition at 280 g/ha ([1]; 0.28 Kg/Ha) turn out when `CCCCOc1cccc(CC)c1N(C)C(=O)CCl` [Example 1, N-methyl-2'-n-butoxy-6'-ethyl-2-chloroacetanilide] was run?
Answer: Its inhibition at 280 g/ha is 5%.

Question: What about the inhibition at 560 g/ha ([1]; 0.56 Kg/Ha) of the same compound?
Answer: Its inhibition at 560 g/ha is 0%.

Question: And the inhibition at 1120 g/ha ([1]; 1.12 Kg/Ha)?
Answer: The inhibition at 1120 g/ha was 15%.

Question: And the inhibition at 2240 g/ha ([1]; 2.24 Kg/Ha)?
Answer: Its inhibition at 2240 g/ha is 20%.

Question: And the inhibition at 375 g/ha ([2]; 3 WAT)?
Answer: Its inhibition at 375 g/ha is 100%.

Question: What about the inhibition at 375 g/ha ([2]; 5 WAT) of the same compound?
Answer: Its inhibition at 375 g/ha is 100%.

Question: And the inhibition at 375 g/ha ([2]; 7 WAT)?
Answer: Its inhibition at 375 g/ha is 100%.

Question: And the inhibition at 750 g/ha ([2]; 3 WAT)?
Answer: The inhibition at 750 g/ha was 100%.

Question: And the inhibition at 750 g/ha ([2]; 5 WAT)?
Answer: The inhibition at 750 g/ha was 100%.

Question: What about the inhibition at 750 g/ha ([2]; 7 WAT) of the same compound?
Answer: The inhibition at 750 g/ha was 100%.

Question: What about the inhibition at 1500 g/ha ([2]; 3 WAT) of the same compound?
Answer: The inhibition at 1500 g/ha was 100%.

Question: And the inhibition at 1500 g/ha ([2]; 5 WAT)?
Answer: The inhibition at 1500 g/ha was 100%.

Question: What about the inhibition at 1500 g/ha ([2]; 7 WAT) of the same compound?
Answer: Its inhibition at 1500 g/ha is 100%.

Question: What about the inhibition at 3000 g/ha ([2]; 3 WAT) of the same compound?
Answer: The inhibition at 3000 g/ha was 100%.

Question: And the inhibition at 3000 g/ha ([2]; 5 WAT)?
Answer: The inhibition at 3000 g/ha was 100%.

Question: And the inhibition at 3000 g/ha ([2]; 7 WAT)?
Answer: The inhibition at 3000 g/ha was 100%.

Question: What about the “selectivity factor (GR15/GR85), MV in transplant rice” value ([2]; between 3 WAT and 7 WAT) of the same compound?
Answer: The value was 16.

Question: And the inhibition at 375 g/ha ([3]; 2 WAT)?
Answer: The inhibition at 375 g/ha was 77%.

Question: What about the inhibition at 375 g/ha ([3]; 4 WAT) of the same compound?
Answer: The inhibition at 375 g/ha was 73%.

Question: And the inhibition at 375 g/ha ([3]; 6 WAT)?
Answer: The inhibition at 375 g/ha was 50%.

Question: What about the inhibition at 750 g/ha ([3]; 2 WAT) of the same compound?
Answer: Its inhibition at 750 g/ha is 62%.

Question: What about the inhibition at 750 g/ha ([3]; 4 WAT) of the same compound?
Answer: Its inhibition at 750 g/ha is 53%.

Question: What about the inhibition at 750 g/ha ([3]; 6 WAT) of the same compound?
Answer: The inhibition at 750 g/ha was 25%.

Question: And the inhibition at 1500 g/ha ([3]; 2 WAT)?
Answer: The inhibition at 1500 g/ha was 92%.

Question: And the inhibition at 1500 g/ha ([3]; 4 WAT)?
Answer: Its inhibition at 1500 g/ha is 83%.

Question: And the inhibition at 1500 g/ha ([3]; 6 WAT)?
Answer: Its inhibition at 1500 g/ha is 73%.

Question: What about the inhibition at 3000 g/ha ([3]; 2 WAT) of the same compound?
Answer: Its inhibition at 3000 g/ha is 95%.

Question: What about the inhibition at 3000 g/ha ([3]; 4 WAT) of the same compound?
Answer: The inhibition at 3000 g/ha was 99%.

Question: And the inhibition at 3000 g/ha ([3]; 6 WAT)?
Answer: The inhibition at 3000 g/ha was 100%.

Question: What about the inhibition at 375 g/ha ([4]; 3 WAT) of the same compound?
Answer: Its inhibition at 375 g/ha is 100%.

Question: What about the inhibition at 375 g/ha ([4]; 5 WAT) of the same compound?
Answer: The inhibition at 375 g/ha was 98%.

Question: What about the inhibition at 375 g/ha ([4]; 7 WAT) of the same compound?
Answer: The inhibition at 375 g/ha was 97%.

Question: And the inhibition at 750 g/ha ([4]; 3 WAT)?
Answer: Its inhibition at 750 g/ha is 93%.

Question: And the inhibition at 750 g/ha ([4]; 5 WAT)?
Answer: The inhibition at 750 g/ha was 93%.

Question: What about the inhibition at 750 g/ha ([4]; 7 WAT) of the same compound?
Answer: The inhibition at 750 g/ha was 95%.

Question: What about the inhibition at 1500 g/ha ([4]; 3 WAT) of the same compound?
Answer: The inhibition at 1500 g/ha was 82%.

Question: What about the inhibition at 1500 g/ha ([4]; 5 WAT) of the same compound?
Answer: The inhibition at 1500 g/ha was 100%.

Question: And the inhibition at 1500 g/ha ([4]; 7 WAT)?
Answer: The inhibition at 1500 g/ha was 67%.

Question: And the inhibition at 3000 g/ha ([4]; 3 WAT)?
Answer: The inhibition at 3000 g/ha was 100%.

Question: What about the inhibition at 3000 g/ha ([4]; 5 WAT) of the same compound?
Answer: The inhibition at 3000 g/ha was 100%.

Question: What about the inhibition at 3000 g/ha ([4]; 7 WAT) of the same compound?
Answer: The inhibition at 3000 g/ha was 100%.

Question: What about the “selectivity factor (GR15/GR85), CS in transplant rice” value ([4]; between 3 WAT and 7 WAT) of the same compound?
Answer: Its value is 16.

Question: And the safety in rice [5]?
Answer: The safety in rice was “safe in rice at rates above 1.5 kg/ha and slightly less than 3.0 kg/ha”.

Question: What about the inhibition at 375 g/ha ([5]; 2 WAT) of the same compound?
Answer: Its inhibition at 375 g/ha is 10%.

Question: What about the inhibition at 375 g/ha ([5]; 4 WAT) of the same compound?
Answer: Its inhibition at 375 g/ha is 7%.

Question: What about the inhibition at 375 g/ha ([5]; 6 WAT) of the same compound?
Answer: The inhibition at 375 g/ha was 5%.

Question: And the inhibition at 750 g/ha ([5]; 2 WAT)?
Answer: The inhibition at 750 g/ha was 3%.

Question: And the inhibition at 750 g/ha ([5]; 4 WAT)?
Answer: Its inhibition at 750 g/ha is 0%.

Question: What about the inhibition at 750 g/ha ([5]; 6 WAT) of the same compound?
Answer: Its inhibition at 750 g/ha is 2%.

Question: What about the inhibition at 1500 g/ha ([5]; 2 WAT) of the same compound?
Answer: The inhibition at 1500 g/ha was 5%.

Question: And the inhibition at 1500 g/ha ([5]; 4 WAT)?
Answer: The inhibition at 1500 g/ha was 0%.

Question: And the inhibition at 1500 g/ha ([5]; 6 WAT)?
Answer: Its inhibition at 1500 g/ha is 2%.

Question: And the inhibition at 3000 g/ha ([5]; 2 WAT)?
Answer: Its inhibition at 3000 g/ha is 25%.

Question: What about the inhibition at 3000 g/ha ([5]; 4 WAT) of the same compound?
Answer: Its inhibition at 3000 g/ha is 22%.

Question: What about the inhibition at 3000 g/ha ([5]; 6 WAT) of the same compound?
Answer: Its inhibition at 3000 g/ha is 23%.

Question: What about the inhibition at 375 g/ha ([6]; 3 WAT) of the same compound?
Answer: The inhibition at 375 g/ha was 90%.

Question: And the inhibition at 375 g/ha ([6]; 5 WAT)?
Answer: The inhibition at 375 g/ha was 88%.

Question: And the inhibition at 375 g/ha ([6]; 7 WAT)?
Answer: Its inhibition at 375 g/ha is 78%.

Question: What about the inhibition at 750 g/ha ([6]; 3 WAT) of the same compound?
Answer: The inhibition at 750 g/ha was 100%.

Question: And the inhibition at 750 g/ha ([6]; 5 WAT)?
Answer: Its inhibition at 750 g/ha is 100%.

Question: And the inhibition at 750 g/ha ([6]; 7 WAT)?
Answer: Its inhibition at 750 g/ha is 100%.

Question: And the inhibition at 1500 g/ha ([6]; 3 WAT)?
Answer: The inhibition at 1500 g/ha was 100%.

Question: And the inhibition at 1500 g/ha ([6]; 5 WAT)?
Answer: Its inhibition at 1500 g/ha is 98%.

Question: What about the inhibition at 1500 g/ha ([6]; 7 WAT) of the same compound?
Answer: Its inhibition at 1500 g/ha is 100%.

Question: And the inhibition at 3000 g/ha ([6]; 3 WAT)?
Answer: The inhibition at 3000 g/ha was 100%.

Question: What about the inhibition at 3000 g/ha ([6]; 5 WAT) of the same compound?
Answer: The inhibition at 3000 g/ha was 100%.

Question: What about the inhibition at 3000 g/ha ([6]; 7 WAT) of the same compound?
Answer: The inhibition at 3000 g/ha was 100%.
